# According to patent US20180217129A1, “A Method Of Assessing Protein Modification Status And Identifying Biomarkers Linked To Cell Signaling Pathways” (Queen Mary University of London, priority 2015, published 2018):
# Read-outs that look alike come from different tables or passages of the source.
# Tests used:
# [1] = test system: off-target kinases (MRC database); settings: cited from earlier work
# off-targets (ChEMBL) = settings: cited from earlier work
# parental MCF7 cells = test: Cell proliferation assay (cell counting), parental cells; assay type: cell-based, human; settings: 1 μM of inhibitor
# Protocol: (§1) Parental MCF7, G1:3 and K1:3 cell-lines were seeded in 12-well plates at a density of approximately 80,000 cells·well^−1, in biological triplicate. After the indicated time period, cells were washed with PBS, trypsinized and counted using a Beckman Coulter Vi-CELL XR cell counter. Second-order polynomials where fitted to the data using the ggplot2 package (v0.9.3.1) within R (v3.0.0).
# [2] = test system: MCF7-G and MCF7-K resistant cells; test: Cell proliferation assay (cell counting), resistant cells; assay type: cell-based, human; settings: resistant cell-lines (MCF7-G for GDC-0941, MCF7-K for KU-0063794), 1 μM of inhibitor
# Protocol: MCF7 cells (identity confirmed by genotyping analysis) were routinely maintained in DMEM (supplemented with 10% fetal-bovine serum and 100 U·mL^−1 penicillin/streptomycin) at 37° C. in a humidified atmosphere at 5% CO2. Resistant MCF7 cell-lines, derived from the original parental cells, were obtained by gradually increasing the concentrations of GDC-0941 or KU-0063794 concentrations (starting at 100 nM up to a maximum of 1 μM) over a period of approximately six months. The resultant clones (MCF7-G1:G3 and MCF7-K1:K3) were then routinely maintained as above in the presence of either 1 μM GDC-0941 or KU-0063794 (in DMSO) for MCF7-G and MCF7-K cells, respectively.
# as §1
# MCF7 cells = test: Growth factor stimulation phosphoproteomics (CTAM group dynamics, KSEA); assay type: cell-based, human; settings: stimulation for 5 min, relative to 0 minute control
# Protocol: Cells were split and seeded at 4×10^5 cells·plate^−1, 72 hours prior to the experiment. The medium in each plate was replaced 24 hours prior to the experiment. Each experiment was performed in biological duplicate. For the network definition experiments, cells were treated with each of the inhibitors or vehicle (DMSO) for 1 hour (Table 1). For the growth factor stimulation experiments, cells were starved for 24h and were subsequently treated with either 50 ng·mL^−1 EGF or IGF for 0, 5, 10, 30, or 60 minutes. For the resistant cell-line experiments, no additional treatments were performed. […]
# The abundance of each of the identified markers was monitored systematically using KSEA (kinase-substrate enrichment analysis), as described previously (1). […] The mean of the log2 fold-ratios (versus control) of the phosphorylation sites representing each CTAM group were then calculated alongside the standard deviation (δ) for each mean. The significance of enrichment was then determined using a Z-score based approach and expressed as P-values, using the following formula: Z=(Sm−μt)·m^1/2/δt; where Sm=mean of the CTAM group log2 fold-ratios; μt=mean of the total dataset log2 ratios; m=number of individual phosphopeptides within the CTAM group; and δt=standard deviation of the total dataset log2 ratios (vs control) (19). […]
compound,measurement,setting,value
CCc1cncnc1N1CCN(Cc2nc3ccc(C(F)(F)F)cc3[nH]2)CC1 [PF-4708671],Off-targets from MRC database (>50% inhibition at given concentration),[1]; 1 μM,MSK1 and RSK1
Cn1c2ccccc2c2c3c(c4c5ccccc5n(CCC#N)c4c21)CNC3=O [Go-6976],Off-targets from ChEMBL,off-targets (ChEMBL),PKD1
N#CC(=C(/N)Sc1ccccc1N)/C(C#N)=C(\N)Sc1ccccc1N [U0126],Off-targets from MRC database (>50% inhibition at given concentration),[1]; 10 μM,MKK1 (10 μM)
Oc1cccc(-c2nc(N3CCOCC3)c3oc4ncccc4c3n2)c1 [PI-103],Off-targets from ChEMBL,off-targets (ChEMBL),"mTOR, and DNA-PK, and Akt1"
CN(C)CCCn1cc(C2=C(c3c[nH]c4ccccc34)C(=O)NC2=O)c2ccccc21 [Bisindolylmaleimide-I],Off-targets from ChEMBL,off-targets (ChEMBL),"CDK4/CCND1, and GSK3β, and PIM1"
C[C@@H](N)[C@H]1CC[C@H](C(=O)Nc2ccncc2)CC1 [Y-27632],Off-targets from MRC database (>50% inhibition at given concentration),[1]; 1 μM,PHK and MST2 and RSK2 and MSK1 and MNK1 and RSK1 and AMPK and PRK2
same,Off-targets from ChEMBL,off-targets (ChEMBL),PKCε
CS(=O)(=O)N1CCN(Cc2cc3nc(-c4cccc5[nH]ncc45)nc(N4CCOCC4)c3s2)CC1 [GDC-0941],proliferation in the presence of inhibitor,parental MCF7 cells,unable to do so
same,proliferation in the presence of inhibitor,[2],able to proliferate
same,Off-targets from MRC database (>50% inhibition at given concentration),[1]; 1 μM,CLK2 (1 μM)
COc1ccc(S(=O)(=O)N(CCO)c2ccccc2CN(C)C/C=C/c2ccc(Cl)cc2)cc1 [KN-93],Off-targets from MRC database (>50% inhibition at given concentration),[1]; 10 μM,TrkA and smMLCK
O=c1[nH]c2ccccc2n1C1CCN(Cc2ccc(-c3nc4cc5[nH]cnc5cc4nc3-c3ccccc3)cc2)CC1 [Akt inhibitor VIII],Off-targets from MRC database (>50% inhibition at given concentration),[1]; 1 μM,CAMK1 (1 μM)
Cc1cncc2cccc(S(=O)(=O)N3CCCNC[C@@H]3C)c12 [H-1152],Off-targets from ChEMBL,off-targets (ChEMBL),PKA
C=CC(=O)Nc1ccc2ncnc(Nc3cccc(Br)c3)c2c1 [PD-168393],Off-targets from ChEMBL,off-targets (ChEMBL),"ERBB2/4, and BMX and BTK and BLK and JAK3"
IGF-1: Human recombinant IGF-1 (100-11) purchased from Peprotech,EGFR-MEK CTAM group phosphorylation,MCF7 cells,"significant, acute up-regulation"
"CN([C@@H](Cc1ccc(OS(=O)(=O)c2cccc3cnccc23)cc1)C(=O)N1CCN(c2ccccc2)CC1)S(=O)(=O)c1cccc2cnccc12 [KN-62, 1-N,O-bis(5-isoquinolinesulfonyl)-N-methyl-L-tyrosyl-4-phenylpiperazin E]",Off-targets from MRC database (>50% inhibition at given concentration),[1]; 10 μM,PRAK and CAMK1 and DYRK1A and Lck
same,Off-targets from ChEMBL,off-targets (ChEMBL),P2RX7
COc1ccc(-c2ccc3c(N4CCOCC4)nc(N4C[C@@H](C)O[C@@H](C)C4)nc3n2)cc1CO [KU-0063794],proliferation in the presence of inhibitor,parental MCF7 cells,unable to do so
same,proliferation in the presence of inhibitor,[2],able to proliferate
Nc1[nH]nc2nnc(-c3c(-c4ccccc4)nn4ccccc34)cc12 [ERK inhibitor II],Off-targets from ChEMBL,off-targets (ChEMBL),MAPK14
